Measured values: patent US9669005B2, “Use of naringenin in preparing drugs for preventing and/or treatment abdominal aortic aneurysm” (priority 2013, dated 2017)

Columns and labels:
Type in all cases: in vivo
metalloproteinase NMP-9 = assay: Gelatin zymography, ApoE knockout mice after second round of angiotensin II; settings: abdominal aortas, naringenin gavage, FIG. 10D
Description: […] Blood vessels were cultured for 24 hours using 0.5 ml serum-free medium with high glucose. After the cultured supernatant protein was quantified, mercaptoethanol-free protein sample loading buffer was added, cryopreserved at −80° C. Water was used to prepare gelatin (Sigma-Aldrich, St. Louis, Mo.) into a concentration of 10 mg/ml, which was added to separation gel of protein electrophoresis according to the proportion of 1:10, causing the final concentration of gelatin as 1 mg/ml. Electrophoresis was performed in a voltage of 80V at 4° C. The gel was put into 0.25% Trixon-100 solution, and washing was performed twice in 30 minutes. And then the gelatin was added to incubation solution (50 mM Tris, 0.2M NaCl, 5 mM CaCl2, 0.02% sodium azide), incubated for 24-48 hours at 37° C. Incubated gel was put into Coomassie brilliant blue to stain for 1-2 hours at room temperature, washed for 30 minutes with a solution having 30% methanol and 10% glacial acetic acid, a solution having 20% methanol and 10% glacial acetic acid, and a solution having 10% methanol and 5% glacial acetic acid, respectively, and then analyzed with Odyssey infrared fluorescence scanning system (LI-COR Biosciences, Lincoln, Nebr.). Both NMP-2 and NMP-9 are gelatinases, and can degrade gelatin; the places where gelatin is degraded are white, and other places are still black. […]

metalloproteinase = assay: In situ zymography, angiotensin II model; settings: AngII ApoE-/- mice; naringenin gavage; FIG. 8A
Description: (§1) After the aortas of mice were perfused with PBS, fresh tissue was directly embedded with OCT, put in liquid nitrogen for freezing, and then continuously sliced. Firstly, washing was performed with PBS for 3 min, thrice. A fluorescently labeled DQ-gelation-FITC substrate (Sigma-Aldrich, St. Louis, Mo.) was incubated 1 hour at 37° C. Under normal circumstances, fluorescent label for the substrate was packaged, so there is no fluorescence; after activated gelatinase degraded gelatin, green fluorescent label would be exposed. After the section was incubated, washing was performed with PBS for 3 min, thrice, and then the section was sealed. Immunofluorescence confocal microscopy was used to irradiate. The stronger fluorescence was, which means, the stronger activity of matrix metalloproteinase was.

[1] = system: formed arterial aneurysms in CaPO4 daubed C57 mice; assay: Formed abdominal aortic aneurysms, CaPO4 model, naringenin gavage from 7 days after daubing
Description: In CaPO4 model, we daubed CaPO4 at infrarenal abdominal aortas in 12-week old of male C57 mice (totally 36 mice), and arterial aneurysms were formed 7 days later. Next, the 36 mice were randomly divided into 2 groups: one group was given naringenin (50 mg/kg/day) gavage, and another group was given equal water gavage. Gavage was performed for 2 weeks (8 mice for each group) and 4 weeks (10 mice for each group), respectively.

[2] = system: macrophages and leukocytes in adventitia in vascular walls; assay: Immunohistochemical staining of inflammatory cells (Mac3, CD45) in vascular walls, CaPO4 model; settings: CaPO4 daubed mice, FIG. 3A
From the text: In the onset of abdominal aortic aneurysm, inflammatory cell infiltration of vascular walls is a common feature. We used histochemical staining to identify inflammatory cells infiltrated in vascular walls. Mac3 is the result of immumohistochemical staining on anti-Mac3 specific antibody, representative of macrophage, and CD45 is the result of immumohistochemical staining on anti-CD45 specific antibody, representative of leukocyte.

[3] = Body weight and blood fat of CaPO4 treated C57BL/6J mice
Description: Gavage was started at the first day after surgery, and water, naringenin (50 mg/kg) (Sigma-Aldrich, St. Louis, Mo.) or doxycycline (100 mg/kg) (Sigma-Aldrich, St. Louis, Mo.) gavage were given on mice daily. Materials were removed from the mice 7 days after gavage. Mice were weighed, and blood was drawn from inner canthus by capillary, after centrifuged for 10 minutes at 6000 rotations, the supernatant was removed and blood fat was measured (kit is purchased from BIOSINO company). Then perfusion and washing were performed on mice using PBS. Blood vessels were separated, and four blood vessels were randomly chosen for each group for photographing. The results were shown in FIG. 1, wherein, NaCl was the group of daubing NaCl (n=11), CaPO4 was the group of daubing CaPO4 plus water feed (n=12), CaPO4+NGN was the group of daubing CaPO4 μlus naringenin gavage (n=11), and CaPO4+Dox was the group of daubing CaPO4 μlus doxycycline gavage (n=11).

IL-6 and MCP-1 [4] = assay: Immunohistochemical staining of IL-6 and MCP-1 on vascular walls, CaPO4 model; settings: CaPO4 daubed mice; immunohistochemistry; FIG. 3B
From the text: IL-6 and MCP-1 are proinflammatory chemotactic factors and cytokines, and they are mainly from vascular walls. MCP-1 can release more matrix metalloproteinase to degrade matrix by recruiting leukocytes, which mediats vascular remodeling and expanding (MacTaggart J N et al. Deletion of ccr2 but not ccr5 or cxcr3 inhibits aortic aneurysm formation Surgery. 2007; 142:284-288; Ishibashi M et al. Bone marrow-derived monocyte chemoattractant protein-1 receptor ccr2 is critical in angiotensin ii-induced acceleration of atherosclerosis and aneurysm formation in hypercholesterolemic mice. Arterioscl throm vasc biol. 2004; 24: e174-178), while IL-6 can enlarge effect of MCP-1 to aggravate the onset of abdominal aortic aneurysms (Tieu B C et al. An adventitial il-6/mcpl amplification loop accelerates macrophage-mediated vascular inflammation leading to aortic dissection in mice. J Clin Invest. 2009; 119:3637-3651). We used histochemical staining to identify the expressions of IL-6 and MCP-1 on vascular walls. IL-6 and MCP-1 were immunohistochemical results of anti-IL-6 and anti-MCP-1 specific antibodies (purchased from Abcam, Cambridge Company, UK), respectively.

matrix metalloproteinase = assay: In situ zymography, CaPO4 model; settings: CaPO4 daubed mice; FIG. 4A
Description: as §1

IL-6 and MCP-1 [5] = assay: Immunofluorescent staining of IL-6 and MCP-1 in vascular walls, angiotensin II model; settings: AngII ApoE-/- mice; naringenin gavage; immunofluorescence; FIG. 7C
Description: In order to illustrate the mechanism by which naringenin reduces inflammatory reaction of abdominal aorta vascular walls of mice, immunofluorescent staining was performed on IL-6 and MCP-1 by continuous sections to analyze their distributions and expressions in vascular walls.

[6] = CaPO4 treated C57BL/6J mice, gavage 7 days, naringenin 50 mg/kg, doxycycline 100 mg/kg

Question: What does the source list for `O=C1C[C@@H](c2ccc(O)cc2)Oc2cc(O)cc(O)c21` [naringenin]?
Answer: activity of metalloproteinase NMP-9 (gelatin zymography) (metalloproteinase NMP-9): significantly inhibit; activated metalloproteinase (in situ zymography) (metalloproteinase): significantly decreases; average diameter of infrarenal abdominal aortas (ex vivo) ([1]; aneurysms formed 7 days after CaPO4, naringenin 50 mg/kg/day gavage 2 weeks, control 1.488±0.42, P<0.05): 0.884±0.33 mm; average diameter of infrarenal abdominal aortas (ex vivo) ([1]; aneurysms formed 7 days after CaPO4, naringenin 50 mg/kg/day gavage 4 weeks, control 1.718±0.64, P<0.05): 0.9935±0.5 mm; infiltration of macrophages and leukocytes in adventitia in vascular walls [2]: reduce such effect; body weights and blood fat levels ([3]; C57BL/6J mice, naringenin gavage 50 mg/kg, 7 days): does not affect; Body weight [3, 6]: 20.1 ± 1.41 g; Cholesterol [3, 6]: 3.53 ± 0.45 mmol; Triglyceride [3, 6]: 0.97 ± 0.22 mmol; expression of IL-6 and MCP-1 in adventitia in vascular walls (IL-6 and MCP-1 [4]): reduce their expressions; activity of matrix metalloproteinase (in situ zymography) (matrix metalloproteinase): reduce the activity of matrix metalloproteinase induced by CaPO4 daubing; production of IL-6 and MCP-1 in vascular walls (IL-6 and MCP-1 [5]): significantly decreases
